Measurements as given in patent US20240342137A1 (priority 2023, published 2024).
≈ marks a conversion by molar mass, not a printed value. Where two headings read alike, the source gives them in different places.

What was measured:
[1] = human, in vivo, 20 mg, cited from earlier work
[2] = human, in vivo; cited from earlier work
[3] = format: physicochemical; conditions: pH 6
[4] = system: other neurotransmitter receptors including I2 and 5-HT; conditions: cited from earlier work
[5] = human, in vivo, cited from earlier work
[6] = system: other adrenergic, opioid or GABA (Gamma-AminoButyric Acid class) sedative and analgesic agents; conditions: cited from earlier work
[7] = system: xylazine sedative effects; conditions: in vivo; cited from earlier work
[8] = biological target: T1, alpha-2 adrenoceptors; conditions: cited from earlier work; for IC50: read-out: half-maximal inhibitory concentration
T1 construct: rows headed: Alpha-2 Ki; other: [3H]clonidine displacement, brain membrane; other: alpha-2; lower sensitivity compared to atipamezole; other: alpha-2, vs atipamezole

[9] = physchem; conditions: water
[10] = biological target: alpha-1 adrenoceptors; conditions: cited from earlier work

SMILES: CCC1(c2cnc[nH]2)Cc2ccccc2C1 [Atipamezole, 4-(2-ethyl-2,3-dihydro-1H-inden-2-yl)-1H-imidazole]
- AUC [1]: 0.085 µg·h/mL
- Cmax [1]: 0.023 µg/mL
- T1/2 [1]: 2.0 h
- Tmax [1]: 0.76 h
- AUC ([1]; iv): 0.231 µg·h/mL
- Cmax ([1]; iv): 0.145 µg/mL
- T1/2 ([1]; iv): 1.8 h
- AUC ([1]; po): 0.0042 µg·h/mL
- Cmax ([1]; po): 0.0012 µg/mL
- T1/2 ([1]; po): 2.0 h
- Tmax ([1]; po): 0.82 h
- increase in heart rate and blood pressure [2]: 14-17 mmHg (which may benefit those who are under deep respiratory
- safety in humans by dose [2]: safe up to 100 mg dose
- untoward or Severe Adverse Event (SAE) [2]: At 30-100 mg/dose in human with no major untoward or Severe Adverse
- final atipamezole concentration when fully dissolved [3]: 375.8 mM
- effect on other neurotransmitter receptors including I2 and 5-HT [4]: Negligible or no effect on other neurotransmitter receptors including I2
- T1/2 ([5]; iv, 15 ug/kg): 2.04 h
- Tmax ([5]; iv, 15 ug/kg): 0.25 h
- T1/2 ([5]; iv, 50 ug/kg): 1.92 h
- T1/2 ([5]; iv, 150 ug/kg): 1.83 h
- elimination half-life ([5]; iv): approximately 2 hour
- elimination half-life [5]: Short elimination half-life (~2 h in humans) improving safety
- effect on other adrenergic, opioid or GABA sedative and analgesic agents [6]: No effect on other adrenergic, opioid or GABA (Gamma-AminoButyric
- breathing rate reversal of xylazine sedative effects [7]: Rapid breathing rate reversal of xylazine sedative effects within a few
- concentrations of atipamezole for restoring breathing rate [7]: 10 to 20 ng/mL
- Ki [8]: 0.0016 µM
- IC50 [8]: 0.0016 µM
- solubility [9]: ~0.07 mg/mL (≈ 330 µM)
- Ki [10]: 13.3 µM

SMILES: COC(=O)[C@@H]1[C@H]2C[C@H]3c4[nH]c5ccccc5c4CCN3C[C@@H]2CC[C@@H]1O [Yohimbine]
- Ki [10]: 5.13 µM

SMILES: c1ccc2c(c1)OCC(C1=NCCN1)O2 (stereo not drawn) [Idazoxan]
- Ki [8]: 0.148 µM
- IC50 [8]: 0.148 µM
- Ki [10]: 3.96 µM
